Test results reported in patent US10494332B2, “Protein tyrosine phosphatases or SHP2 inhibitors and uses thereof” (Indiana University Research and Technology Corporation, priority 2015, dated 2019).
Values joined by “and” are separate entries in the source; they are usually repeats but may differ in a detail not shown here. Equal values may be shown once.

Target: T1, LMWPTP (Homo sapiens, UniProt P24666)
T1 sequence (P24666 1-158): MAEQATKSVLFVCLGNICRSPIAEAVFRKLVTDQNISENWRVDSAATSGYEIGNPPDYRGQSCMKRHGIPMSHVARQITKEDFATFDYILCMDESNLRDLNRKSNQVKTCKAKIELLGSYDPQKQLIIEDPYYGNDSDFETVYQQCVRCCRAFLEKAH
Assay: PTP inhibition assay (pNPP)
Assay type: biochemical
Settings: pH 7

Row | Structure (SMILES) | IC50 [µM]
1 | O=C(Nc1nc2ccccc2s1)C(c1ccccc1)S(=O)(=O)O (centres unmarked) [Compound L319N15] | 7.1

Same assay, conditions: pNPP at Km, pH 7.0, 25° C.

Row | Structure (SMILES) | IC50
2 | Cc1c(Br)cc(NC(=O)CS(=O)(=O)O)cc1Br | 4.2 µM
3 | O=C(CS(=O)(=O)O)Nc1ccc2nc(C(F)(F)F)[nH]c2c1 | 1.86 µM
4 | O=C(CS(=O)(=O)O)Nc1cnc2ccccc2c1 | 12 µM
5 | O=C(NCCNC(=O)C(c1ccccc1)S(=O)(=O)O)c1cccc(C(=O)c2ccccc2)c1 (centres unmarked) [Compound L319-02-A60] | > 200 µM
6 | O=C(Nc1nc2ccccc2s1)C(c1ccccc1)S(=O)(=O)O (centres unmarked) [Compound L319N15] | 7.33 µM and 8.6 µM

Target: YopH (Yersinia enterocolitica, UniProt P15273)
Assay: biochemical
Settings: not given

YopH, sequence (P15273 whole entry, looked up): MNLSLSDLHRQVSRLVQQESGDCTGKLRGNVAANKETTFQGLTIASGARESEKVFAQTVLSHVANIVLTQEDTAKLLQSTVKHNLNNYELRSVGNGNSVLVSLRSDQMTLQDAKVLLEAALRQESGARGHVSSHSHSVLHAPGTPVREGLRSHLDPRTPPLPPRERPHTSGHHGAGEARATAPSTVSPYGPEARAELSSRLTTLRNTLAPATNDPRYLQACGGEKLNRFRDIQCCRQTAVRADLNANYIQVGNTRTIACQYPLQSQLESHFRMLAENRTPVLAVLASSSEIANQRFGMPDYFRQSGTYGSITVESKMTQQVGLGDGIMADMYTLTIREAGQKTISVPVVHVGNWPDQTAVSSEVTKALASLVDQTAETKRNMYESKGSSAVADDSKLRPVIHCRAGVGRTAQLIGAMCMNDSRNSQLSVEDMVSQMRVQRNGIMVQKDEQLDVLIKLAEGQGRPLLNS

Row | Structure (SMILES) | IC50 [µM]
7 | Cc1c(Br)cc(NC(=O)CS(=O)(=O)O)cc1Br | > 100
8 | O=C(CS(=O)(=O)O)Nc1ccc2nc(C(F)(F)F)[nH]c2c1 | > 100
9 | O=C(CS(=O)(=O)O)Nc1cnc2ccccc2c1 | > 100
10 | O=C(Nc1nc2ccccc2s1)C(c1ccccc1)S(=O)(=O)O (centres unmarked) [Compound L319N15] | > 200

Target: T2, LYP (Homo sapiens, UniProt Q9Y2R2)
T2 sequence (Q9Y2R2 1-807): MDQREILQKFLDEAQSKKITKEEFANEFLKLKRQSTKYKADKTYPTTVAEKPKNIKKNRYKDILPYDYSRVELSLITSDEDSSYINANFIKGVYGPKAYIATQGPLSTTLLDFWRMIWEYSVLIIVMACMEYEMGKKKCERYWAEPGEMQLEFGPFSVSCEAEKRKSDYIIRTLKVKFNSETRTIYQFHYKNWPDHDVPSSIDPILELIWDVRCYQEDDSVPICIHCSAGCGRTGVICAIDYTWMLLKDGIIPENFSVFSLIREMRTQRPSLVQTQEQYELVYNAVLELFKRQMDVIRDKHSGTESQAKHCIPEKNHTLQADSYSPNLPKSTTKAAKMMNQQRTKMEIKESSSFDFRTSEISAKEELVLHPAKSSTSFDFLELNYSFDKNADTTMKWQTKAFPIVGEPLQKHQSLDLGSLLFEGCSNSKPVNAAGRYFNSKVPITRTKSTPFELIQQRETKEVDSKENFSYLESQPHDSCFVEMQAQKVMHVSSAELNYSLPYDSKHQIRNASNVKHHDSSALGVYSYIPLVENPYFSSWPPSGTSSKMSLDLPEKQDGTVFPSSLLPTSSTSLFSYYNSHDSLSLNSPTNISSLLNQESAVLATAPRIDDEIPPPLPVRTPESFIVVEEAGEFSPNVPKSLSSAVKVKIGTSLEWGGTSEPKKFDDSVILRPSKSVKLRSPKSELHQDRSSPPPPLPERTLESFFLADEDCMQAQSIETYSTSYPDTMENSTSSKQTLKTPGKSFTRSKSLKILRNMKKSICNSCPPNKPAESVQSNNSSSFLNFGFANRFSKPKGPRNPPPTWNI
Assay: PTP inhibition assay (pNPP)
Assay type: biochemical
Settings: pNPP at Km, pH 7.0, 25° C.

Row | Structure (SMILES) | IC50
11 | Cc1c(Br)cc(NC(=O)CS(=O)(=O)O)cc1Br | > 100 µM
12 | O=C(CS(=O)(=O)O)Nc1ccc2nc(C(F)(F)F)[nH]c2c1 | > 100 µM
13 | O=C(CS(=O)(=O)O)Nc1cnc2ccccc2c1 | > 100 µM
14 | O=C(NCCNC(=O)C(c1ccccc1)S(=O)(=O)O)c1cccc(C(=O)c2ccccc2)c1 (centres unmarked) [Compound L319-02-A60] | > 200 µM
15 | O=C(Nc1nc2ccccc2s1)C(c1ccccc1)S(=O)(=O)O (centres unmarked) [Compound L319N15] | > 200 µM and 190 µM

Target: SHP1 (Homo sapiens, UniProt P29350)
Assay: PTP inhibition assay (pNPP)
Assay type: biochemical
Settings: pNPP at Km, pH 7.0, 25° C.

SHP1, sequence (P29350 whole entry): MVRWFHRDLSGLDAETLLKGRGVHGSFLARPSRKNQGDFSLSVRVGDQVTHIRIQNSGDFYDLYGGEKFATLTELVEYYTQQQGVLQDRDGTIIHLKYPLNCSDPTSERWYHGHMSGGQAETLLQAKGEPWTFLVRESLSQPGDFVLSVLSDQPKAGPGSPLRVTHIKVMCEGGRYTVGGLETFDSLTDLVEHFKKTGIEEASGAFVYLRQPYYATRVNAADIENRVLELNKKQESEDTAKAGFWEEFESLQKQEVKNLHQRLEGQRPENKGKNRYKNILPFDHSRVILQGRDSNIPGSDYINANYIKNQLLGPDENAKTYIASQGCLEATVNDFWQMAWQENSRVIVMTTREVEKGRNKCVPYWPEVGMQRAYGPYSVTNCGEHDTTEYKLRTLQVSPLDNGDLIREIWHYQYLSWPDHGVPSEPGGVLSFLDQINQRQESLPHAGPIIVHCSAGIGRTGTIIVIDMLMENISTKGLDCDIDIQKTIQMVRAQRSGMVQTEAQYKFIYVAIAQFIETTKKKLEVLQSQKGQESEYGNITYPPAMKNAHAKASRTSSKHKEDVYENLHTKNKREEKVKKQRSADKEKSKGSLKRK

Row | Structure (SMILES) | IC50
16 | Cc1c(Br)cc(NC(=O)CS(=O)(=O)O)cc1Br | > 100 µM
17 | O=C(CS(=O)(=O)O)Nc1ccc2nc(C(F)(F)F)[nH]c2c1 | > 100 µM
18 | O=C(CS(=O)(=O)O)Nc1cnc2ccccc2c1 | > 100 µM
19 | O=C(NCCNC(=O)C(c1ccccc1)S(=O)(=O)O)c1cccc(C(=O)c2ccccc2)c1 (centres unmarked) [Compound L319-02-A60] | > 200 µM
20 | O=C(Nc1nc2ccccc2s1)C(c1ccccc1)S(=O)(=O)O (centres unmarked) [Compound L319N15] | > 200 µM and 59.6 µM

Target: T3, SHP2 (Homo sapiens, UniProt Q06124)
T3 sequence (Q06124 224-528): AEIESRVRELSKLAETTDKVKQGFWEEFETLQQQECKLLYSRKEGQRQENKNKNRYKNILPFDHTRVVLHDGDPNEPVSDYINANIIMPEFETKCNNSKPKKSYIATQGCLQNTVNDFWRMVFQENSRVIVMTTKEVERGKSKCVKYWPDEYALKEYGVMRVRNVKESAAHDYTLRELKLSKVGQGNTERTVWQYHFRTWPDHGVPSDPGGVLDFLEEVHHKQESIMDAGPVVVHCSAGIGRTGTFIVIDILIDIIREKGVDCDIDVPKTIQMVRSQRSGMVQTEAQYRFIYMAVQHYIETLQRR
Assay: SHP2 phosphatase inhibition assay (pNPP)
Assay type: biochemical
Settings: pNPP at Km, pH 7.0, 25° C.; read-out: IC50 SHP2

Row | Structure (SMILES) | IC50
21 | Cc1c(Br)cc(NC(=O)CS(=O)(=O)O)cc1Br | > 100 µM
22 | O=C(CS(=O)(=O)O)Nc1ccc2nc(C(F)(F)F)[nH]c2c1 | > 100 µM
23 | O=C(CS(=O)(=O)O)Nc1cnc2ccccc2c1 | > 100 µM
24 | O=C(NCCNC(=O)C(c1ccccc1)S(=O)(=O)O)c1cccc(C(=O)c2ccccc2)c1 (centres unmarked) [Compound L319-02-A60] | > 200 µM
25 | O=C(Nc1nc2ccccc2s1)C(c1ccccc1)S(=O)(=O)O (centres unmarked) [Compound L319N15] | > 200 µM and > 100 µM and 160 µM

Target: T4, Meg2 (Homo sapiens, UniProt P43378)
T4 sequence (P43378 1-593): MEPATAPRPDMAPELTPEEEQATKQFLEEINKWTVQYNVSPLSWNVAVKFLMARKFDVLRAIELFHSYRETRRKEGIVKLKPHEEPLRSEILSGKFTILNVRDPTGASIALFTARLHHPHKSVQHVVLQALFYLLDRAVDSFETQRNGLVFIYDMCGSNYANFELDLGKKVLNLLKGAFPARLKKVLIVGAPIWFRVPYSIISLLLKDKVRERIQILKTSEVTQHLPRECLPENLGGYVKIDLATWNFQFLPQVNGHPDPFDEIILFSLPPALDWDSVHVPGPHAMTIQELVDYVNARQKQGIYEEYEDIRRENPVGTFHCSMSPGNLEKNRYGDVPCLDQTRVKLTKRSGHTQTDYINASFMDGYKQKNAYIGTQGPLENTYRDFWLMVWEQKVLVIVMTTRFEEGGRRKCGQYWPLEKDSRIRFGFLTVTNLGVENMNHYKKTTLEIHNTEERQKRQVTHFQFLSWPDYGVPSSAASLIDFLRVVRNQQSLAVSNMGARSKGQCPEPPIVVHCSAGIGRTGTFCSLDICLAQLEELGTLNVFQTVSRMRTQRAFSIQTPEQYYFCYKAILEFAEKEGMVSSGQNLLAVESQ
Assay: PTP inhibition assay (pNPP)
Assay type: biochemical
Settings: not given

Row | Structure (SMILES) | IC50 [µM]
26 | Cc1c(Br)cc(NC(=O)CS(=O)(=O)O)cc1Br | > 100
27 | O=C(CS(=O)(=O)O)Nc1ccc2nc(C(F)(F)F)[nH]c2c1 | > 100
28 | O=C(CS(=O)(=O)O)Nc1cnc2ccccc2c1 | > 100
29 | O=C(Nc1nc2ccccc2s1)C(c1ccccc1)S(=O)(=O)O (centres unmarked) [Compound L319N15] | > 200

Target: PTPα (Homo sapiens, UniProt P18433)
Assay: PTP inhibition assay (pNPP)
Assay type: biochemical
Settings: not given

PTPα, sequence (P18433 20-802): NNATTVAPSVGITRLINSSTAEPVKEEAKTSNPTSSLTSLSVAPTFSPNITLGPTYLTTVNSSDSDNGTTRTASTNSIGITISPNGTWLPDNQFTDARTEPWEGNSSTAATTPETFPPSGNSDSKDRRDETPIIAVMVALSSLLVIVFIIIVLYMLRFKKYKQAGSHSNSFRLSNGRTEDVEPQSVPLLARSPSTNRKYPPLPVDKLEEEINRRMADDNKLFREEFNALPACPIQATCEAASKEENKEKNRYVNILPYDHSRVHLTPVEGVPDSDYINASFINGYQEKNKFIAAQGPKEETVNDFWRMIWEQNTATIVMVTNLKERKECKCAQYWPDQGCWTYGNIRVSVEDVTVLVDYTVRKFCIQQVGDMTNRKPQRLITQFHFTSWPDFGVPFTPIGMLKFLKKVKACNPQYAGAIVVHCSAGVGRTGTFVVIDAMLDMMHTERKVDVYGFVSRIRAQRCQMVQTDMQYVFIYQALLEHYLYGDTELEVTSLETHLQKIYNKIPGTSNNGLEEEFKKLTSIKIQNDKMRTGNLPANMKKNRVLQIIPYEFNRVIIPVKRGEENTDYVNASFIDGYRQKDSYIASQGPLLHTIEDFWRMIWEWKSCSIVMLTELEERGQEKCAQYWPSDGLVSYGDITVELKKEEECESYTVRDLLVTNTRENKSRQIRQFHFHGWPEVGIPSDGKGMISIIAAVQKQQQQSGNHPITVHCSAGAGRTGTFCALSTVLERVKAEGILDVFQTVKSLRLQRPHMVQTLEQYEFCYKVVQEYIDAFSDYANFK

Row | Structure (SMILES) | IC50 [µM]
30 | Cc1c(Br)cc(NC(=O)CS(=O)(=O)O)cc1Br | > 100
31 | O=C(CS(=O)(=O)O)Nc1ccc2nc(C(F)(F)F)[nH]c2c1 | > 100
32 | O=C(CS(=O)(=O)O)Nc1cnc2ccccc2c1 | > 100
33 | O=C(Nc1nc2ccccc2s1)C(c1ccccc1)S(=O)(=O)O (centres unmarked) [Compound L319N15] | > 200

Target: T5, STEP (Homo sapiens, UniProt P54829)
T5 sequence (P54829 1-565): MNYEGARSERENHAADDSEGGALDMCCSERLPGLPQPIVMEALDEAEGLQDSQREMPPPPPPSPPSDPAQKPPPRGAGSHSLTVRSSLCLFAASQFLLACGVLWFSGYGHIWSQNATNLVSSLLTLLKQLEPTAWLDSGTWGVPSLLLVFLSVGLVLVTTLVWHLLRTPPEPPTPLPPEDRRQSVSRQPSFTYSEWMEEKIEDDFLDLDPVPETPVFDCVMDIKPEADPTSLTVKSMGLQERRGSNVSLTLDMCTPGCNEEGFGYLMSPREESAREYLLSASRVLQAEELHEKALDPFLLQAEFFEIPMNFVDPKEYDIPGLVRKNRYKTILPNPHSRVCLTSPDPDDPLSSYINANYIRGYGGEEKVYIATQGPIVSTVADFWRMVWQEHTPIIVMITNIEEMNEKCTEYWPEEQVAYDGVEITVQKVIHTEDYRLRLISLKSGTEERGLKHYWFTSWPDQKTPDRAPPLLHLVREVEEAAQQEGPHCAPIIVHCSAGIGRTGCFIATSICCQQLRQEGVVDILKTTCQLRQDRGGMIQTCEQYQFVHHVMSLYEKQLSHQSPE
Assay: PTP inhibition assay (pNPP)
Assay type: biochemical
Settings: IC50 STEP, pNPP at Km, pH 7.0, 25° C.

Row | Structure (SMILES) | IC50 [µM]
34 | Cc1c(Br)cc(NC(=O)CS(=O)(=O)O)cc1Br | > 100

Same assay, conditions: pNPP at Km, pH 7.0, 25° C.; read-out: IC50 STEP

Row | Structure (SMILES) | IC50 [µM]
35 | O=C(CS(=O)(=O)O)Nc1ccc2nc(C(F)(F)F)[nH]c2c1 | > 100
36 | O=C(CS(=O)(=O)O)Nc1cnc2ccccc2c1 | > 100
37 | O=C(NCCNC(=O)C(c1ccccc1)S(=O)(=O)O)c1cccc(C(=O)c2ccccc2)c1 (centres unmarked) [Compound L319-02-A60] | > 200
38 | O=C(Nc1nc2ccccc2s1)C(c1ccccc1)S(=O)(=O)O (centres unmarked) [Compound L319N15] | > 200
